Data on 9 molecules can be found in patent US10906890B2, “Triazole phenyl compounds as agonists of the APJ receptor” (AMGEN INC., priority 2016, dated 2021).

human APJ receptor, sequence (P35414 whole entry): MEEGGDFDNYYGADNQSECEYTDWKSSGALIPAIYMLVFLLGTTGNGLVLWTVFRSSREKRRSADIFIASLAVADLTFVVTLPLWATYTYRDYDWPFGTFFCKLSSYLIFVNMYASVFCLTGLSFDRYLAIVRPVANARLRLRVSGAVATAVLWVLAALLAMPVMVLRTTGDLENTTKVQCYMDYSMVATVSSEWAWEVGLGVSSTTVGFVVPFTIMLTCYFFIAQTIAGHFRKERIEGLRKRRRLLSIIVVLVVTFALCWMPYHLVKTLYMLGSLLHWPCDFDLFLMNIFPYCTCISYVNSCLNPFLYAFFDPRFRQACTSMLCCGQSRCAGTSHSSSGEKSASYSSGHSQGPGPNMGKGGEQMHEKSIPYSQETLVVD

This assay has as its target human APJ receptor (Homo sapiens (Human), UniProt P35414). Description: [35S]GTPγS binding assay on membranes from CHO cells stably expressing human APJ receptor. Format: biochemical. To be noted: means of several independent experiments, read-out: Activity hAPJ SPA EC50 IP. The method, then:
The human APJ receptor was cloned by polymerase chain reaction and the gene encoding the receptor was subcloned in pFLAG-CMV™-3 expression vector (Sigma, Saint Louis, Mo. USA) in-house at Amgen. A GTPγS binding assay was performed on membranes prepared from CHO cells stably expressing human APJ receptor. The optimum experimental conditions for the concentrations of GDP, MgCl2, and NaCl in the assay buffer were initially determined. […] Incubation was at RT for 90 min and the microplate was read using a ViewLux™ ultra HTS Microplate Imager (PerkinElmer, Inc.). All the results presented are means of several independent experiments and analyzed by non-linear regression methods using the commercially available program Prism (GraphPad, San Diego, Calif.) providing the EC50 values detailed in Table 28.
A general note: Binding of GTPγS marks nucleotide exchange on a G protein.
`COc1cccc(OC)c1-n1c(NS(=O)(=O)[C@H]2CCCN(c3ncc(Cl)cn3)C2)nnc1-c1ccccc1` (single isomer, unassigned) [Example 34.0, (S)-1-(5-Chloropyrimidin-2-yl)-N-(4-(2,6-dimethoxyphenyl)-5-phenyl-4H-1,2,4-triazol-3-yl)piperidine-3-sulfonamide or (R)-1-(5-chloropyrimidin-2-yl)-N-(4-(2,6-dimethoxyphenyl)-5-phenyl-4H-1,2,4-triazol-3-yl)piperidine-3-sulfonamide]: the concentration giving a half-maximal response (EC50) was found to be 28 nM.
With `COc1cccc(OC)c1-n1c(NS(=O)(=O)CCc2ccc(F)cc2C#N)nnc1-c1ccccc1` [Example 12.0, 2-(2-cyano-4-fluorophenyl)-N-(4-(2,6-dimethoxyphenyl)-5-phenyl-4H-1,2,4-triazol-3-yl)ethanesulfonamide] the figure was 8.5 nM; with `COc1cccc(OC)c1-n1c(NS(=O)(=O)[C@@H](C)[C@H](OC)c2ncc(C)cn2)nnc1-c1cccc(S(=O)(=O)N(C)C)c1` [Example 73.0, 3-(4-(2,6-dimethoxyphenyl)-5-((((1S,2R)-2-methoxy-1-methyl-2-(5-methyl-2-pyrimidinyl)ethyl)sulfonyl)amino)-4H-1,2,4-triazol-3-yl)-N,N-dimethylbenzenesulfonamide], 31 nM.
With `Cc1cnc([C@@H](O)[C@H](C)S(=O)(=O)Nc2nnc(-c3ccccc3)n2-c2c(F)cccc2F)nc1` [Example 45.0] the figure was 34 nM; with `COc1ccc(-c2nnc(NS(=O)(=O)[C@@H](C)[C@H](OC)c3ncc(C)cn3)n2-c2c(OC)cccc2OC)cc1C#N` [Example 75.0, (1R,2S)-N-(5-(3-cyano-4-methoxyphenyl)-4-(2,6-dimethoxyphenyl)-4H-1,2,4-triazol-3-yl)-1-methoxy-1-(5-methyl-2-pyrimidinyl)-2-propanesulfonamide], 13 nM.
With `COc1ncnc(OC)c1-n1c(NS(=O)(=O)[C@@H](C)[C@H](C)c2cnc(C)cn2)nnc1-c1ccccc1` [Example 26.0, (2S,3R)-N-(4-(4,6-dimethoxy-5-pyrimidinyl)-5-phenyl-4H-1,2,4-triazol-3-yl)-3-(5-methyl-2-pyrazinyl)-2-butanesulfonamide], the half-maximal effective concentration (EC50) stood at 5.2 nM.
The same measure for `CO[C@H](c1ncc(Cl)cn1)[C@H](C)S(=O)(=O)Nc1nnc(-c2ccccc2)n1C(C)C` [Example 110.0]: 75 nM; for `COc1ccnc(OC)c1-n1c(NS(=O)(=O)[C@@H](C)[C@H](C)c2cnc(C)cn2)nnc1-c1ccccc1` (single isomer, unassigned) [Example 54.0, (2S,3R,P)-N-(4-(2,4-dimethoxy-3-pyridinyl)-5-phenyl-4H-1,2,4-triazol-3-yl)-3-(5-methyl-2-pyrazinyl)-2-butanesulfonamide or (2S,3R,M)-N-(4-(2,4-dimethoxy-3-pyridinyl)-5-phenyl-4H-1,2,4-triazol-3-yl)-3-(5-methyl-2-pyrazinyl)-2-butanesulfonamide]: 14 nM; for `COc1cccc(OC)c1-n1c(NS(=O)(=O)[C@H]2C[C@@H](OC(C)C)CN(c3ncc(F)cn3)C2)nnc1-c1ccccc1` (single isomer, unassigned) [Example 58.0, (3R,5S)-N-(4-(2,6-dimethoxyphenyl)-5-phenyl-4H-1,2,4-triazol-3-yl)-1-(5-fluoro-2-pyrimidinyl)-5-(1-methylethoxy)-3-piperidinesulfonamide or (3S,5R)-N-(4-(2,6-dimethoxyphenyl)-5-phenyl-4H-1,2,4-triazol-3-yl)-1-(5-fluoro-2-pyrimidinyl)-5-(1-methylethoxy)-3-piperidinesulfonamide]: 0.94 nM.

By EC50 is commonly meant the concentration at which the effect is half-maximal.
